Experimental data: patent US20070275977A1, “N-OXIDES OF PYRIDYLMETHYL -PIPERAZINE AND -PIPERIDINE DERIVATIVES” (priority 2006, published 2007)
pKi: −log10 of the molar value.

What was measured:
Dopamine-D1 = Dopamine-D1 (Homo sapiens, UniProt P21728); assay: In vitro receptor affinity, Dopamine-D1; format: binding; details: radioligand [3H]-SCH 23390, read-out: K1 (in vitro receptor affinity)
Protocol: (§1) ln vitro affinity for neurotransmitter receptors: The binding data collected below were either obtained by CE REP (128, rue Danton, 92500 Rueil-Malmaison, France) or at Solvay Pharmaceuticals B.V. (C. J. van Houtenlaan 36, 1381 CP Weesp, The Netherlands), using well documented standard procedures. The affinities for dopamine-D2 and 5-HT1A receptors for instance, were measured as described by Creese (1997) and Gozlan (1983) respectively.

μ-opiate = μ-opiate (Rattus norvegicus, UniProt P33535); assay: In vitro receptor affinity, μ-opiate; format: binding; details: radioligand [3H]-DAMGO, read-out: K1 (in vitro receptor affinity)
Chain of μ-opiate (P33535 whole entry): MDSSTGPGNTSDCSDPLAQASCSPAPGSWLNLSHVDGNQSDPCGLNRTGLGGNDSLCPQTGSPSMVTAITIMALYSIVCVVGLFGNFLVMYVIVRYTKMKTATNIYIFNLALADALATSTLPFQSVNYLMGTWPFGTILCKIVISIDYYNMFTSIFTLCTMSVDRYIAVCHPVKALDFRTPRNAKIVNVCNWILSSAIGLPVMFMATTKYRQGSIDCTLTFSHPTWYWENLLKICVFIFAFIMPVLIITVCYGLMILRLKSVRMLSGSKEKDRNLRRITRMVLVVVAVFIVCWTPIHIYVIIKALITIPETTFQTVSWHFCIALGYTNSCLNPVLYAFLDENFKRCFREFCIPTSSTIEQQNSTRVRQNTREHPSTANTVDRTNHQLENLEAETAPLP
Protocol: as §1

α2-adrenergic = assay: In vitro receptor affinity, α2-adrenergic; format: binding; details: rat, radioligand [3H]-RX 821002; read-out: K1 (in vitro receptor affinity)
Protocol: as §1

[1] = system: Apomorphine-induced climbing behaviour in mice; assay: Antagonism of apomorphine-induced climbing behaviour in mice; format: in vivo; details: Mus musculus, po, read-out: Antagon. apomorphine ind. climbing: ED50
Protocol: (§2) For oral (p.o.) administration: to the desired quantity (0.5-5 mg) of the solid test compound in a glass tube, some glass beads were added and the solid was milled by vortexing for 2 minutes. After addition of 1 ml of a solution of 1% methylcellulose in water and 2% (v/v) of Poloxamer 188 (Lutrol F68), the compound was suspended by vortexing for 10 minutes. The pH was adjusted to 7. Remaining particles in the suspension were further suspended by using an ultrasonic bath.
(§3) Lower lip retraction, an in vivo animal model for serotonin 5-HT1A receptor agonistic activity, was measured according to the method described by Berendsen (1989); Apomorphine-induced climbing behaviour in mice, an in vivo animal model for dopamine-D2 receptor antagonistic activity, was determined according to the method described by Costall (1978).

human D2 receptors = biological target: T1, human D2 receptors (Homo sapiens, UniProt P14416); assay: In vitro functional antagonism at D2 receptors, adenylate cyclase in CHO cell-lines; format: cell-based; details: CHO cell-lines expressing cloned receptor; read-out: Antagonism human D2 receptors, pA2 (converted)
T1 construct: expressed in transfected cells; host or cells: CHO
T1 sequence (P14416 whole entry): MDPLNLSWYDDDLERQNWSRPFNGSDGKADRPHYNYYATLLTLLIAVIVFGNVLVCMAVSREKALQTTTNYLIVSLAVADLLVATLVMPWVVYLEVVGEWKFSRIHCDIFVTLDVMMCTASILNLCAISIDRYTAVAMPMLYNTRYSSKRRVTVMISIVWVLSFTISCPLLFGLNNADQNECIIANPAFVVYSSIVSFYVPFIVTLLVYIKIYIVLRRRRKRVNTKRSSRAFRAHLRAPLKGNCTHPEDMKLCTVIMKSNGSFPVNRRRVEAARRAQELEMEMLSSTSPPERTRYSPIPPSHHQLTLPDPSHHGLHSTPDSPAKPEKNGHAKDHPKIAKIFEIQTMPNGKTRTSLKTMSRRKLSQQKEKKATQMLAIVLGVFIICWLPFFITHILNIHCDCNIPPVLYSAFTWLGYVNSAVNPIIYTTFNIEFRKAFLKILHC
Protocol: (§4) In vitro (ant)agonistic activity at human D2 receptors and 5-HT1A receptors was measured according to the methods described by Solomon (1974) and Weiss (1985) respectively, on the formation of adenylate cyclase in CHO cell-lines expressing these cloned receptors.

Muscarine-M4 = Muscarine-M4 (Homo sapiens, UniProt P08173); assay: In vitro receptor affinity, Muscarine-M4; format: binding; details: radioligand [3H]-4-DAMP, read-out: K1 (in vitro receptor affinity)
Chain of Muscarine-M4 (P08173 whole entry): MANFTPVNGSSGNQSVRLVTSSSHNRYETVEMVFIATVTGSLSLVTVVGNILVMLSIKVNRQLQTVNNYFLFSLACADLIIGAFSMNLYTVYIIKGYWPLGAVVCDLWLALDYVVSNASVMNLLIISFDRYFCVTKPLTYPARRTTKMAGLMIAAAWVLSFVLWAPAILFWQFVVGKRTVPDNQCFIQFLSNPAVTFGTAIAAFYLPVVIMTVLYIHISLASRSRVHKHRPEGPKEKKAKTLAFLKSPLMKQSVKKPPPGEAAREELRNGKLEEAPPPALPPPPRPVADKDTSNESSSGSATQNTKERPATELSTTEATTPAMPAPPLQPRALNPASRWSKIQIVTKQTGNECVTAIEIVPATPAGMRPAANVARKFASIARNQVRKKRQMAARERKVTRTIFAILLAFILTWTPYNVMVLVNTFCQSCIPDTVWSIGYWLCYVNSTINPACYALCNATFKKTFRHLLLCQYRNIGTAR
Protocol: as §1

Muscarine-M1 = Muscarine-M1 (Homo sapiens, UniProt P11229); assay: In vitro receptor affinity, Muscarine-M1; format: binding; details: radioligand [3H]-pirenzepine, read-out: K1 (in vitro receptor affinity)
Chain of Muscarine-M1 (P11229 whole entry): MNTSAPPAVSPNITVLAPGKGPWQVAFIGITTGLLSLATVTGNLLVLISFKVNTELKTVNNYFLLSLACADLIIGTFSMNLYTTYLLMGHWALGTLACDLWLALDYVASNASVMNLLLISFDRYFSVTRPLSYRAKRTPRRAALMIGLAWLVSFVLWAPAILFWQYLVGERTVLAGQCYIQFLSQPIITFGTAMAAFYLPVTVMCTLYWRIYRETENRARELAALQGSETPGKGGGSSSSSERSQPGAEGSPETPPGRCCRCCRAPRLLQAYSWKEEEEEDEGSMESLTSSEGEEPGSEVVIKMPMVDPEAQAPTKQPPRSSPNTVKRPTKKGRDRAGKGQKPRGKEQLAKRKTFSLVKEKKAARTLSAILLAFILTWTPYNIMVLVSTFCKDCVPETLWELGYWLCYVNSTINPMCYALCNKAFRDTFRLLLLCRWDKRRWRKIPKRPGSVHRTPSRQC
Protocol: as §1

human 5-HT1A receptors = biological target: T2, human 5-HT1A receptors (Homo sapiens, UniProt P08908); assay: In vitro functional agonism at 5-HT1A receptors, adenylate cyclase in CHO cell-lines; format: cell-based; details: CHO cell-lines expressing cloned receptor; read-out: Agonism human 5-HT1A receptors, pEC50 (converted)
T2 construct: expressed in transfected cells; host or cells: CHO
Protocol: as §4

[2] = Volume of distribution measured in mice; format: in vivo; details: for VD in liters per kilograms: measured in mice; for Vd: plasma, calculated for an average person weighing 70 kg from mouse VD
Protocol: The volume of distribution (VD), also known as the ‘apparent volume of distribution’, is a pharmacological term used to quantify the distribution of a drug throughout the body after oral or parenteral dosing. It is defined as the volume in which the amount of drug would need to be uniformly distributed in to produce the observed concentration (Widmark, 1919).
The volume of distribution of SLV313 and its pyridine N-oxide was measured in mice, using the standard procedure well known in the art:
The volume of distribution is not a physiological volume, but rather the ratio between the total amount of drug in the body and its concentration in plasma. It is generally accepted that the volume of distribution is more or less the same across species, making it a parameter that, when measured in laboratory animals, has a high predictive value towards man.

5-HT reuptake = 5-HT reuptake (Homo sapiens, UniProt P31645); assay: In vitro receptor affinity, 5-HT reuptake; format: binding; details: radioligand [3H]-paroxetine, read-out: K1 (in vitro receptor affinity)
Chain of 5-HT reuptake (P31645 whole entry): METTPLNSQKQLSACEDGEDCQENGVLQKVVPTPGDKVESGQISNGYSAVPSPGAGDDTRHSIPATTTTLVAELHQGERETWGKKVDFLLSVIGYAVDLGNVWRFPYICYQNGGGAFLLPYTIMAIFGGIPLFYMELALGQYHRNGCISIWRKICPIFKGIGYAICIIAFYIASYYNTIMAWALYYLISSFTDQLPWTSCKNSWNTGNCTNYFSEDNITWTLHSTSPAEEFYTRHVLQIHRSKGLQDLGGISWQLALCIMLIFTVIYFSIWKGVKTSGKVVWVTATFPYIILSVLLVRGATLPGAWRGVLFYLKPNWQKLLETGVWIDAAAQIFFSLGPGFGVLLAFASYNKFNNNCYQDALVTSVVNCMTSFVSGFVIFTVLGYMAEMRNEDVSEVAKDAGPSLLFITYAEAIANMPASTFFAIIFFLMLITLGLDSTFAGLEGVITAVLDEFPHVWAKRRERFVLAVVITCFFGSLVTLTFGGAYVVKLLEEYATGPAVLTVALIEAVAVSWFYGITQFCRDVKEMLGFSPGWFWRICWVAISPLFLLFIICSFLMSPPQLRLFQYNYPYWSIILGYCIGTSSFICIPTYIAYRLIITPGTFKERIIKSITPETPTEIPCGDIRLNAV
Protocol: as §1

Serotonin-5-HT4 = Serotonin-5-HT4 (Homo sapiens, UniProt Q13639); assay: In vitro receptor affinity, Serotonin-5-HT4; format: binding; details: radioligand [3H]-GR 113808, read-out: K1 (in vitro receptor affinity)
Chain of Serotonin-5-HT4 (Q13639 whole entry): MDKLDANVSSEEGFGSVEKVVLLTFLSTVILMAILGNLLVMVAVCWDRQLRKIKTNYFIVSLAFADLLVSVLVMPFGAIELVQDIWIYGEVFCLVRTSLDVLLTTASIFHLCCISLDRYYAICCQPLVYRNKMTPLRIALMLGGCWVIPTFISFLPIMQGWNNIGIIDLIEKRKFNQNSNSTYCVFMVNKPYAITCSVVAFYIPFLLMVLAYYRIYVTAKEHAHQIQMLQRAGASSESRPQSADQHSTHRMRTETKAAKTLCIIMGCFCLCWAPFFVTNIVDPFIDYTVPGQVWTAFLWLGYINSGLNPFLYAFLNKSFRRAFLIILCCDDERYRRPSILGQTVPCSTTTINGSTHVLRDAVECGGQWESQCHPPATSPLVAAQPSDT
Protocol: as §1

Lower lip retraction = assay: Lower lip retraction; format: in vivo; details: po; read-out: Lower Lip Retraction: ED50
Protocol: as §2, §3

Serotonin-5-HT7 = Serotonin-5-HT7 (Homo sapiens, UniProt P34969); assay: In vitro receptor affinity, Serotonin-5-HT7; format: binding; details: radioligand [3H]-LSD, read-out: K1 (in vitro receptor affinity)
Chain of Serotonin-5-HT7 (P34969 whole entry): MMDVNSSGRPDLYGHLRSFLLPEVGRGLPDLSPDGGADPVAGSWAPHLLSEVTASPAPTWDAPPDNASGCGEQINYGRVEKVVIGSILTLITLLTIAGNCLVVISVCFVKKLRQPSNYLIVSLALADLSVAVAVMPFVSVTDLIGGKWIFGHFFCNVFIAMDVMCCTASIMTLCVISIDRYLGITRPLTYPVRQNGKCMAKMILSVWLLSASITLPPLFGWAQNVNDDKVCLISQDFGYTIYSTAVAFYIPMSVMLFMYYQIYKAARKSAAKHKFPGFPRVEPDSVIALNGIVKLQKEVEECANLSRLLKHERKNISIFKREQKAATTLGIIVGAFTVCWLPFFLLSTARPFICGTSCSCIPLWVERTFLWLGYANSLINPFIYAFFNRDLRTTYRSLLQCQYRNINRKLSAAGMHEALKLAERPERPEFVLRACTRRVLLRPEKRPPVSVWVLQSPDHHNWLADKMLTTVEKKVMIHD
Protocol: as §1

α1-adrenergic = assay: In vitro receptor affinity, α1-adrenergic; format: binding; details: rat, radioligand [3H]-prazosin; read-out: K1 (in vitro receptor affinity)
Protocol: as §1

Histamine-H1 = Histamine-H1 (Homo sapiens, UniProt P35367); assay: In vitro receptor affinity, Histamine-H1; format: binding; details: radioligand [3H]-pyrilamine, read-out: K1 (in vitro receptor affinity)
Chain of Histamine-H1 (P35367 whole entry): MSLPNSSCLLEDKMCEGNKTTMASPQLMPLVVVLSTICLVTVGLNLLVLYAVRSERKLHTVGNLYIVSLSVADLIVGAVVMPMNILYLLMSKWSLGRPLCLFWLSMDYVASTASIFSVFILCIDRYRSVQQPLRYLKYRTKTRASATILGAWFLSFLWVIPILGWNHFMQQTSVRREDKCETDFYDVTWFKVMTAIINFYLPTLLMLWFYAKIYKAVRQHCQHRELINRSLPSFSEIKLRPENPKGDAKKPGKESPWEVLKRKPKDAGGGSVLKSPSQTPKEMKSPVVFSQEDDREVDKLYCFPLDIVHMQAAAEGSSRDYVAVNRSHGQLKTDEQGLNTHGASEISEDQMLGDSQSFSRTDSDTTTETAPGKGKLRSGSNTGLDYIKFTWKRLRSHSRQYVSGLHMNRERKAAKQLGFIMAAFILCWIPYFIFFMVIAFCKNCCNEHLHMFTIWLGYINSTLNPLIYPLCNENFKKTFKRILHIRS
Protocol: as §1

Serotonin-5-HT1A = biological target: T3, Serotonin-5-HT1A (Homo sapiens, UniProt P08908); assay: In vitro receptor affinity, Serotonin-5-HT1A; format: binding; details: radioligand [3H]-8-OH-DPAT, read-out: K1 (in vitro receptor affinity)
T3 sequence (P08908 1-422): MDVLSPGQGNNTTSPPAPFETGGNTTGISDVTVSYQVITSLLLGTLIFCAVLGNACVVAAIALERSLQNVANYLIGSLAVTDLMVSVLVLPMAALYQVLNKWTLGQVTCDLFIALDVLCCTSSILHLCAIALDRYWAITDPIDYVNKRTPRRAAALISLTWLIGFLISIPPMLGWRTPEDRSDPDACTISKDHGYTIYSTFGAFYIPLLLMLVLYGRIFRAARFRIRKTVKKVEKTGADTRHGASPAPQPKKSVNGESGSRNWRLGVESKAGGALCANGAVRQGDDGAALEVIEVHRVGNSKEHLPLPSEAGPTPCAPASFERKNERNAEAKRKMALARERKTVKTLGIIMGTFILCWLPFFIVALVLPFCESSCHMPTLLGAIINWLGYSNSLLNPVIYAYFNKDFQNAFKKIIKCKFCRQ
Protocol: as §1

Serotonin-5-HT2C = Serotonin-5-HT2C (Homo sapiens, UniProt P28335); assay: In vitro receptor affinity, Serotonin-5-HT2C; format: binding; details: radioligand [125I]-DOI, read-out: K1 (in vitro receptor affinity)
Chain of Serotonin-5-HT2C (P28335 33-458): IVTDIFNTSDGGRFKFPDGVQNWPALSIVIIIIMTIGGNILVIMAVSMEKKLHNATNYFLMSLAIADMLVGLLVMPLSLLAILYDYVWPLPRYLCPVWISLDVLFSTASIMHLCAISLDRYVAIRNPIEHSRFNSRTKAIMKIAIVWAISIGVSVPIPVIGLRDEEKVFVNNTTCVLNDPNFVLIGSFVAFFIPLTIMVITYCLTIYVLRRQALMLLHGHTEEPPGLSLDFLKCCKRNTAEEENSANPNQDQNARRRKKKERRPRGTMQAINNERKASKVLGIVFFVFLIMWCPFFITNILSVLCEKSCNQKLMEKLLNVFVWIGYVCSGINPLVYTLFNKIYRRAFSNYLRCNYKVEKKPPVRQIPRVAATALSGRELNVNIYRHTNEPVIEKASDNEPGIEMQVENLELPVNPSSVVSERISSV
Protocol: as §1

Chain of Dopamine-D1 (P21728 whole entry): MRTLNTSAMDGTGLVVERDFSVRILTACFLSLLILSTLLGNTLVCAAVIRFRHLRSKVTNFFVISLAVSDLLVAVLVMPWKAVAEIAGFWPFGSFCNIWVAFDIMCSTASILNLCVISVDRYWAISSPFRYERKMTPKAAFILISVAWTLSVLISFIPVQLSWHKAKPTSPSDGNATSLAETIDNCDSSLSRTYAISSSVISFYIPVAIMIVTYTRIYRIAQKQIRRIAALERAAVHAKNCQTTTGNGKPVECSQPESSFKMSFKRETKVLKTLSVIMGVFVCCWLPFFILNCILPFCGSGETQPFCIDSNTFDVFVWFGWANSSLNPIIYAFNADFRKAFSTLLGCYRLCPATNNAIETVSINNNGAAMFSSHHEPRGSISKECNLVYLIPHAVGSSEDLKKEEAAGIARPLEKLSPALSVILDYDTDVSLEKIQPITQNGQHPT

Structure (SMILES) | pKi (Dopamine-D1) | pKi (μ-opiate) | pKi (α2-adrenergic) | ED50 [1] [mg/kg] | Kb (human D2 receptors) [nM] | pKi (Muscarine-M4) | pKi (Muscarine-M1) | EC50 (human 5-HT1A receptors) [nM] | VD in liters per kilograms [2] [liters per kilograms] | Vd [2] [L] | pKi (5-HT reuptake) | pKi (Serotonin-5-HT4) | ED50 (Lower lip retraction) [mg/kg] | pKi (Serotonin-5-HT7) | pKi (α1-adrenergic) | pKi (Histamine-H1) | pKi (Serotonin-5-HT1A) | pKi (Serotonin-5-HT2C)
Fc1ccc(-c2cncc(CN3CCN(c4cccc5c4OCCO5)CC3)c2)cc1 [SLV313, 3-[[4-(2,3-dihydro-1,4-benzodioxin-5-yl)-1-piperazinyl]methyl]-5-(4-fluorophenyl)pyridine, reference compound] | < 5.00 | 5.10 | < 6.00 | 0.5 | 0.501 | < 6.00 | < 5.00 | 1.26 | 5 | 350 | < 6.00 | < 6.00 | 2.3 | 7.20 | 6.30 | < 6.00 | 9.10 | < 6.00
[O-][n+]1cc(CN2CCN(c3cccc4c3OCCO4)CC2)cc(-c2ccc(F)cc2)c1 [pyridine N-oxide, 1-(2,3-dihydro-1,4-benzodioxin-5-yl)-4-[[5-(4-fluorophenyl)-1-oxido-3-pyridinyl]methyl]-piperazine] | < 5.00 | 5.49 | 6.20 | 0.9 | 0.631 | < 5.00 | < 5.00 | 1.58 | 1 | 70 | 6.49 | < 5.00 | 3 | 7.00 | 6.00 | < 5.00 | 9.40 | < 5.00
